Data on 15 compounds can be found in PMC11173002, “A Humanized CB1R Yeast Biosensor Enables Facile Screening of Cannabinoid Compounds” (International Journal of Molecular Sciences, 2024).

“Also recorded” adds a separate entry of the source. Where two headings read alike, the source gives them in different places.

By EC50 is commonly meant the concentration that produces a half-maximal response.

Common to all, as to format: cell-based
Experiment [1] concerns the target T1, syn-pre-pro-Δ89-CB1R (Homo sapiens, UniProt P21554).
T1 construct: expressed in transfected cells; host or cells: Saccharomyces cerevisiae BY4741-derived ZsGreen reporter strain (Gpa1-Gαi3 chimera; also sterol-modified strains ST01–ST15)
As to the kind of experiment: cell-based. The settings on record: for EC50 values / activity in words: PINACA agonist series.

Another experiment has as its target T2, CB1 Cannabinoid Receptor (Homo sapiens, UniProt P21554).
T2 construct: Since the human CB1R strain uses the full-length receptor; host or cells: Ready-to-Assay CB1 Cannabinoid Receptor Frozen Cells (commercial human cell line with promiscuous Gα15, division-arrested)
As to the kind of experiment: Mammalian cell calcium assay (Gα15, Fluo-8 fluorescence). Conditions: high concentrations (10 μM), four-point dose response. As to the method:
To validate the findings and further evaluate the performance of our yeast screening assay, we retested a subset of our library in a conventional mammalian cell assay. We acquired human cell lines depleted of native GPCRs and containing the promiscuous Gα15, wherein GPCR activation triggers intracellular calcium release, which is measured by Fluo-8 fluorescence (see Section 4). We selected eight compounds for side-by-side testing between the yeast and human host for CB1R (Figure 4a–d). To maximize the number of compounds tested per plate, we performed a limited four-point dose response on the mammalian cells (Figure 4a,b).
Mammalian cell assays were performed in Eurofins Ready-to-Assay™ CB1 Cannabinoid Receptor Frozen Cells. Cells were division-arrested, which limited the number of samples that could be measured, so a limited 4-point dose response was performed. Cells were seeded in 96-well plates and grown for 24 h. Cells were washed with Hank’s Balanced Salt Solution (HBSS) with 20 mM HEPES and 2.5 mM Probenecid at pH 7.4. […] Cells with dye were incubated at 37 °C for 1 h before fluorescent measurement on a Flexstation 3-plate reader (Molecular Devices, San Jose, CA, USA). Baseline fluorescence was measured for 10 s before 50 μL ligands were injected into 100 μL cells. Samples were measured for 180 s and recorded values were measured as ΔF/F0 (Fmax − Fmin/Fmin).

The target in experiment [2] is T1, syn-pre-pro-Δ89-CB1R. As to the kind of experiment: syn-pre-pro-Δ89-CB1R dose response in sterol-modified yeast strains ST01–ST15. The source says:
Ergosterol and cholesterol share a common zymosterol precursor that can be converted to cholesterol through a four-enzyme pathway that produces seven downstream metabolites (Figure 2b). We recently replaced the native yeast sterol pathway with cholesterol biosynthesis enzymes to create a small library of yeast strains that produce varying levels of these seven metabolites in the GpaI-Gai3 chimeric ZsGreen human GPCR reporter strain [30]. The syn-pre-pro-Δ89-CB1R expression construct was transformed into fifteen strains (ST01–ST15, Figure 2c, Supplementary Table S1) selected to cover the metabolic and structural sterol space. We then performed dose response experiments with ACEA and measured the ZsGreen via fluorescent cytometry.
Yeast colonies were picked and grown overnight to saturation in pH 5.8 SD-His media in a 2.2 mL deep well plate (Axygen, Corning, NY, USA), grown in a plate-shaking incubator (30 °C, 1000 rpm, 3 mm orbital). In the morning, cultures were diluted to 1:10 or 1:25 in SD-His media buffered to pH 7.1 with 100 mM MOPSO (unless otherwise specified). Ligands were added to the culture and incubated with shaking for 8 h. Cells were then washed three times with ice-cold Tris buffer (pH 7) and diluted to 1:20 for cytometry. All cytometry was performed on a Sony SA3800 spectral analyzer. Each sample was tested for 10,000 events and read at a rate of 1000 events per second. All assays as reported here were filtered only for singlet populations.

For the next experiment, the target named is T3, Syn-pre-pro CB1R (Homo sapiens, UniProt P21554).
T3 construct: expressed in transfected cells; host or cells: Saccharomyces cerevisiae BY4741-derived ZsGreen reporter strain (Gpa1-Gαi3 chimera)
T3 sequence (P21554 whole entry): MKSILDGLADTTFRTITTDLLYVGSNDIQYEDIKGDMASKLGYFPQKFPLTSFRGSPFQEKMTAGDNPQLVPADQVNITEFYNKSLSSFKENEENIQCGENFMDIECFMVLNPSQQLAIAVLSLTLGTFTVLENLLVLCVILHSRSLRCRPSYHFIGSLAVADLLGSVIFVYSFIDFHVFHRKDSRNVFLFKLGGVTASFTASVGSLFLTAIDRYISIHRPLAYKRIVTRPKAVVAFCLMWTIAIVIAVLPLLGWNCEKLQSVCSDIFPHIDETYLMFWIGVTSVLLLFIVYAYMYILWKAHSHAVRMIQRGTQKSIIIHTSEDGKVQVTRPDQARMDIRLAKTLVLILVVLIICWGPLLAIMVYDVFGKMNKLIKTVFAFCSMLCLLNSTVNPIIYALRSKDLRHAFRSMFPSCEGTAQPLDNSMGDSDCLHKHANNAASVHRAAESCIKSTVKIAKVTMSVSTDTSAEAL
In words: Yeast ZsGreen reporter strain with full-length syn-pre-pro CB1R.

The next experiment concerns the target T4, WT CB1R (Homo sapiens, UniProt P21554).
T4 construct: expressed in transfected cells; host or cells: Saccharomyces cerevisiae BY4741-derived ZsGreen reporter strain (Gpa1-Gαi3 chimera)

Another experiment addresses T5, Δ89-CB1R (Homo sapiens, UniProt P21554).
T5 construct: expressed in transfected cells; host or cells: Saccharomyces cerevisiae BY4741-derived ZsGreen reporter strain (Gpa1-Gαi3 chimera)
In words: Yeast ZsGreen reporter strain with N-terminally truncated CB1R.

Where [3] appears, read: FUBINACA and PINACA compounds, 8 h, n = 3 (Figure 3), read-out: EC50, dose response.
The mark [4] stands for this setting: Supplementary Table S2, read-out: EC50 (M) Yeast CB1R.
The mark [5] stands for this setting: read-out: EC50, ACEA dose response.
Setting [6] is: compound at 10 nM, screen, n = 1.

T1 sequence (P21554 90-472 limits assumed, stated change not applied): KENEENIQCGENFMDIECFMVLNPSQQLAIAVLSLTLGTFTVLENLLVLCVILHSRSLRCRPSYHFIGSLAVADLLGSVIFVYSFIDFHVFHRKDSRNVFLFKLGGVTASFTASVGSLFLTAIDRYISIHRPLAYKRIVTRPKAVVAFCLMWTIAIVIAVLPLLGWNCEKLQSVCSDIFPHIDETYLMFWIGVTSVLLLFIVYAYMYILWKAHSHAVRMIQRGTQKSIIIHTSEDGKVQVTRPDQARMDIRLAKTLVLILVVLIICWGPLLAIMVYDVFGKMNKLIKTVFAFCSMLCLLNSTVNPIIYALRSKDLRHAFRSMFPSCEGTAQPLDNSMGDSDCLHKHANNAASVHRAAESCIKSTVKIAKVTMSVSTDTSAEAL
T4 sequence (P21554 whole entry): as the sequence (P21554 whole entry) above
T5 sequence (P21554 with tags, fused parts or gaps): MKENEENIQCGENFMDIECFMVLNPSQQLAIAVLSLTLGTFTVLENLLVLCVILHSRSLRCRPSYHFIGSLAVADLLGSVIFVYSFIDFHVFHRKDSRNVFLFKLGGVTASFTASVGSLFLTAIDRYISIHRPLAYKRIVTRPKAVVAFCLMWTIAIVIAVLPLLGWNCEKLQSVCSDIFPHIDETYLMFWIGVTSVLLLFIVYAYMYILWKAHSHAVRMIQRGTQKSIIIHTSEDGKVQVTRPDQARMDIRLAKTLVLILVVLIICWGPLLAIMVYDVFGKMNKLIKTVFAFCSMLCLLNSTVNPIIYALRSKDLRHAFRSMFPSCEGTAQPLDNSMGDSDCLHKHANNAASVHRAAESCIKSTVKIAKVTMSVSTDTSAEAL
T2 sequence (P21554 whole entry): as the sequence (P21554 whole entry) above

For `CC[C@H](C)[C@H](NC(=O)c1nn(CCCCCF)c2ccccc12)C(N)=O` (single isomer, unassigned) [5-fluoro ADB-PINACA isomer 2], the “EC50 values / activity in words” value at syn-pre-pro-Δ89-CB1R [1] is reported as “drastic loss of activity”. Moreover, the “activity in the yeast assay” value at syn-pre-pro-Δ89-CB1R [1] (side-by-side with mammalian cells, high concentrations (10 μM), listed as 5-fluoro 2-ADB-PINACA isomer 2) is given as “lowest activity; also recorded: partial agonism”. Besides, the “induction of calcium dye fluorescence” value on CB1 Cannabinoid Receptor is “failed to induce significant levels of fluorescence”.
Consider `CCCC(NC(=O)c1nn(Cc2ccc(F)cc2)c2ccccc12)C(N)=O` (single isomer, unassigned) [AB-FUBINACA isomer 1], for which the “maximal signaling in dose response” value at syn-pre-pro-Δ89-CB1R [1] is “high maximal signaling”. The figures for the EC50 at syn-pre-pro-Δ89-CB1R [1] (setting [3]) and on syn-pre-pro-Δ89-CB1R [1] (setting [4]) were 1e-11 M and 4.74e-10 M, respectively.
Take `CCC(C)(NC(=O)c1nn(Cc2ccc(F)cc2)c2ccccc12)C(N)=O` (single isomer, unassigned) [AB-FUBINACA isomer 2]: on syn-pre-pro-Δ89-CB1R [1], the “maximal signaling in dose response” value is listed as “lower response”. In addition, the EC50 at syn-pre-pro-Δ89-CB1R [1] (setting [3]) was found to be 2.3e-10 M.
Take `CCC(C(N)=O)N(C)C(=O)c1nn(Cc2ccc(F)cc2)c2ccccc12` (single isomer, unassigned) [AB-FUBINACA isomer 5]: the “maximal signaling in dose response” value on syn-pre-pro-Δ89-CB1R [1] is “lower response”. The 50% effective concentration (EC50) on syn-pre-pro-Δ89-CB1R [1] (setting [3]) stood at 1.59e-08 M.
As to `O=C(Oc1cccc2cnccc12)c1cn(CCCCCF)c2ccccc12` [5-fluoro PB-22 5-hydroxyisoquinoline isomer], the EC50 at syn-pre-pro-Δ89-CB1R [1] (setting [4]) stood at 9.09e-12 M.
As for `CC(C)=CCCC(C)CCO` (stereo not drawn) [(+)-β-Citronellol], the “activity in terpene library screen” value on syn-pre-pro-Δ89-CB1R [1] was “found to activate CB1R”.
As for `CC(C)[C@H](NC(=O)c1cn(Cc2ccccc2)c2ccccc12)C(N)=O` [AB-BICA], on syn-pre-pro-Δ89-CB1R [1] (setting [4]), the EC50 was determined as 5.66e-09 M.
On to `CC(C)C(NC(=O)c1nn(Cc2ccc(F)cc2)c2ccccc12)C(N)=O` (stereo not drawn) [AB-FUBINACA], for which, on syn-pre-pro-Δ89-CB1R [1], the maximal activity is 79–84% and the “maximal signaling in dose response” value is “high maximal signaling”. The compound further yielded an EC50 at syn-pre-pro-Δ89-CB1R [1] (EC50 (M) Yeast CB1R) of 1.13e-11 M. The midpoint of the response at syn-pre-pro-Δ89-CB1R [1] (EC50, dose response), the EC50, lay at 6.6e-10 M.
As to `CCCCCn1nc(C(=O)NC(C(N)=O)C(C)C)c2ccccc21` (stereo not drawn) [AB-PINACA], at syn-pre-pro-Δ89-CB1R [1], the maximal activity was 79–84% and the “EC50 values / activity in words” value is recorded as “low nanomolar range”. Besides, the 50% effective concentration (EC50) at syn-pre-pro-Δ89-CB1R [1] (setting [3]) came to 1.21e-09 M.
In the case of `CCCCC/C=C\C/C=C\C/C=C\C/C=C\CCCC(=O)NCCCl` [ACEA, Arachidonyl-2′-chloroethylamide], the “Fold Change CB1R” value stood at 93.6 ± 15.6 fold at syn-pre-pro-Δ89-CB1R [1], 73.2 fold at syn-pre-pro-Δ89-CB1R [2] (Strain ST01) and 34.3 fold on syn-pre-pro-Δ89-CB1R [2] (Strain ST13). Moreover, on syn-pre-pro-Δ89-CB1R [1], the “drop in sensitivity compared to the full-length syn-pre-pro construct” value came to 3.8 fold. Moreover, the fold activation at syn-pre-pro-Δ89-CB1R [1] is reported as 28 fold; at Syn-pre-pro CB1R (syn-pre-pro modification alone) it was “approximately 7 fold”; at Δ89-CB1R (truncated receptor) it was 15 fold. In addition, the EC50 at syn-pre-pro-Δ89-CB1R [1] (setting [5]) is 1.5e-07 M; on syn-pre-pro-Δ89-CB1R [2] (Strain ST01, read-out: EC50) it was 73 nM; on syn-pre-pro-Δ89-CB1R [2] (Strain ST02, read-out: EC50), 305 nM; at syn-pre-pro-Δ89-CB1R [2] (Strain ST03, read-out: EC50), 144 nM; on syn-pre-pro-Δ89-CB1R [2] (Strain ST04, read-out: EC50) it was 96 nM; at syn-pre-pro-Δ89-CB1R [2] (Strain ST05, read-out: EC50) it was 107 nM. Besides, the EC50 is 74 nM at syn-pre-pro-Δ89-CB1R [2] (Strain ST06, read-out: EC50); 102 nM at syn-pre-pro-Δ89-CB1R [2] (Strain ST08, read-out: EC50); 134 nM on syn-pre-pro-Δ89-CB1R [2] (Strain ST09, read-out: EC50); 253 nM at syn-pre-pro-Δ89-CB1R [2] (Strain ST10, read-out: EC50); 160 nM on syn-pre-pro-Δ89-CB1R [2] (Strain ST11, read-out: EC50); 140 nM at syn-pre-pro-Δ89-CB1R [2] (Strain ST12, read-out: EC50). In addition, the EC50 was determined as 99 nM on syn-pre-pro-Δ89-CB1R [2] (Strain ST13, read-out: EC50); 640 nM at syn-pre-pro-Δ89-CB1R [2] (Strain ST14, read-out: EC50); 604 nM on syn-pre-pro-Δ89-CB1R [2] (Strain ST15, read-out: EC50); 65 nM at syn-pre-pro-Δ89-CB1R [2] (cholesterol intermediate strain ST07, text value, read-out: EC50); 199 nM on syn-pre-pro-Δ89-CB1R [2] (mean over ST01–ST15, read-out: average EC50 value across the intermediate strains); 40 nM on Syn-pre-pro CB1R (Syn-pre-pro CB1R in yeast, 8 h, n = 3, read-out: EC50, ACEA dose response). In addition, the EC50 on WT CB1R (setting [5]) amounted to 1300 nM; at Δ89-CB1R (Δ89-CB1R in yeast, 8 h, n = 3, read-out: EC50, ACEA dose response), 5050 nM. For the same compound, the “fold signaling (activation)” value on WT CB1R is listed as under 4 fold.
With `CCCCCn1nc(C(=O)NC(C(N)=O)C(C)(C)C)c2ccccc21` (stereo not drawn) [ADB-PINACA], on syn-pre-pro-Δ89-CB1R [1], the maximal activity is recorded as 79–84% and the “EC50 values / activity in words” value is given as “low nanomolar range”. The EC50 on syn-pre-pro-Δ89-CB1R [1] (setting [3]) was 9e-11 M. Moreover, on syn-pre-pro-Δ89-CB1R [1] (setting [4]), the EC50 amounted to 8.34e-12 M.
For the compound `CCCCCCC(C)(C)c1cc(O)c2c(c1)OC(C)(C)[C@H]1CC=C(CO)C[C@H]21` [HU-211], the “relative fluorescence of the ACEA positive control” value on syn-pre-pro-Δ89-CB1R [1] is reported as “less than 25%”.
Turning to `Cc1c(C(=O)c2ccccc2)c(N)c(-c2ccccc2)n1Cc1ccc(Cl)cc1` [URB447], the “relative fluorescence of the ACEA positive control” value on syn-pre-pro-Δ89-CB1R [1] (setting [6]) was “less than 25%”.
Same read-out and setting: under `COc1ccc(C(=O)c2c(C)n(CCN3CCOCC3)c3cc(Br)ccc23)cc1` [WIN54,461] stands “less than 25%”.
Take `C=C1CCC[C@]2(C)CC[C@@H](C(C)(C)O)C[C@@H]12` [β-Eudesmol]: the “activity in terpene library screen” value on syn-pre-pro-Δ89-CB1R [1] is recorded as “found to activate CB1R”. Moreover, the “signaling in terpene dose response” value on syn-pre-pro-Δ89-CB1R [1] (dose response, n = 3) is given as “showed signaling at high (10 µM) concentrations”.
